Source: PMC12548382, “Discovery of a potent covalent inhibitor that unusually distorts the catalytic dyad of SARS-CoV-2 main protease” (Journal of Virology, 2025)

Experiments:
SARS-CoV-2 M^pro = SARS-CoV-2 M^pro (Severe acute respiratory syndrome coronavirus 2, UniProt P0DTD1); assay: SARS-CoV-2 M^pro enzyme inhibition assay (FRET substrate); type: biochemical; conditions: for IC50: 150 nM enzyme, 30 min preincubation, 25 µM substrate, mean ± SD
SARS-CoV-2 = SARS-CoV-2 viral load reduction assay in VeroE6 cells; type: cell-based; conditions: 10 µM, MOI 0.1, 48 hpi, qRT-PCR of supernatant
Experimental: Fig 3 In vitro antiviral activity of selected compounds. VeroE6 cells were infected with SARS-CoV-2 (multiplicity of infection [MOI] of 0.1) and treated with various concentrations of H102, PF-07321332, GC376, or vehicle control. Viral RNA load in the cell culture supernatant samples was quantified by qRT-PCR. All experiments were performed in triplicate, and the values are presented as mean ± SD. P-values were calculated using Student’s t-test to compare each compound candidate with vehicle control. *P < 0.05.
Viral load reduction assay was performed for the evaluation of antiviral activity as we described previously ([34]). Briefly, SARS-CoV-2-infected VeroE6 cells were treated with different concentrations of compounds or dimethyl sulfoxide (DMSO) control. Then, cell culture supernatant samples were collected at 48 h post-inoculation (hpi) for qRT-PCR analysis of viral RNA load. Culture supernatant was lysed with buffer AVL and then extracted for total RNA with the QIAamp viral RNA mini kit (Qiagen). qRT-PCR was used for quantitation of SARS-CoV-2 viral load using the QuantiNova Probe RT-PCR kit (Qiagen) with a LightCycler 480 Real-Time PCR System (Roche). […]

SARS-CoV M^pro = SARS-CoV M^pro ref 27; cited from earlier work

Compound `COc1ccc(C[C@H](NC(=O)[C@@H](NC(=O)OC(C)(C)C)C(C)(C)C)C(=O)N[C@@H](C[C@@H]2CCNC2=O)C(=O)C(=O)Nc2cccc(C(C)=O)c2)cc1` [H97] has an IC50 (SARS-CoV-2 M^pro) of 6.3 ± 2.7 µM.
For `COc1ccc(C[C@H](NC(=O)[C@H](C)NC(=O)OC(C)(C)C)C(=O)N[C@@H](C[C@@H]2CCNC2=O)C(=O)C(=O)Nc2cccc(C(C)=O)c2)cc1` [H94], the IC50 (SARS-CoV-2 M^pro) was 24.8 ± 2.3 µM.
In the case of `COc1ccc(C[C@H](NC(=O)[C@H](C)NC(=O)c2cnc(-c3ccc(C(C)=O)cc3)s2)C(=O)N[C@@H](C[C@@H]2CCNC2=O)C(=O)C(=O)Nc2cccc(C(C)=O)c2)cc1` [H96], the IC50 (SARS-CoV-2 M^pro) is reported as 9.4 ± 3 µM and the “increase in M^pro inhibitory potency compared to compound 17” value (SARS-CoV-2 M^pro; vs compound 17) is reported as over 10 fold.
In the case of `COc1ccc(C[C@H](NC(=O)[C@H](CC(C)C)NC(=O)OC(C)(C)C)C(=O)N[C@@H](C[C@@H]2CCNC2=O)C(=O)C(=O)Nc2cccc(C(C)=O)c2)cc1` [H99], the IC50 (SARS-CoV-2 M^pro) is reported as 9.9 ± 4.7 µM.
For `CC(C)(C)[C@H](NC(=O)C(F)(F)F)C(=O)N1C[C@H]2[C@@H]([C@H]1C(=O)N[C@H](C#N)C[C@@H]1CCNC1=O)C2(C)C` [PF-07321332, Nirmatrelvir], the “reduction in viral RNA load” value (SARS-CoV-2) was 3.48 log10.
For `CC(C)C[C@H](NC(=O)OCc1ccccc1)C(=O)N[C@@H](C[C@@H]1CCNC1=O)C(O)S(=O)(=O)[O-].[Na+]` (some centres unmarked) [GC376], the “reduction in viral RNA load” value (SARS-CoV-2) was 3.93 log10.
Work on `COC[C@H](NC(=O)OC(C)(C)C)C(=O)N[C@@H](Cc1ccc(OC)cc1)C(=O)N[C@@H](C[C@@H]1CCNC1=O)C(=O)C(=O)Nc1cccc(C(C)=O)c1` [H137] yielded an IC50 (SARS-CoV-2 M^pro) of 28.9 ± 3.8 µM.
In the case of `CC(=O)c1cccc(NC(=O)C(=O)[C@H](C[C@@H]2CCNC2=O)NC(=O)[C@H](CC(C)C)NC(=O)[C@@H](NC(=O)OC(C)(C)C)C(C)(C)C)c1` [H101], the IC50 (SARS-CoV-2 M^pro) is reported as 3.8 ± 0.4 µM.
In the case of `COC(=O)[C@H](C[C@@H]1CCNC1=O)NC(=O)OC(C)(C)C` [compound 3], the IC50 (SARS-CoV M^pro) is given as 0.3 µM.
In the case of `COc1ccc(C[C@H](NC(=O)[C@@H](NC(=O)OC(C)(C)C)C(C)C)C(=O)N[C@@H](C[C@@H]2CCNC2=O)C(=O)C(=O)Nc2cccc(C(C)=O)c2)cc1` [H98], the IC50 (SARS-CoV-2 M^pro) is reported as 8.7 ± 2.5 µM.
